Legend:
[1] = system: primary human cells; assay: BioMAP Diversity PLUS Panel for Broad Phenotypic Profiling; format: cell-based
[2] = biological target: constitutive proteasome subunit β2 (Homo sapiens, UniProt P49720+Q99436); assay: Cell-free proteasome subunit peptide cleavage assay, β2; format: biochemical
[3] = biological target: constitutive proteasome subunit β1 (Homo sapiens, UniProt P28072+Q99436); assay: Cell-free proteasome subunit peptide cleavage assay, β1; format: biochemical
[4] = biological target: immunoproteasome subunit MECL-1 (Homo sapiens, UniProt P40306+P49720); assay: Cell-free proteasome subunit peptide cleavage assay, MECL-1; format: biochemical
[5] = biological target: immunoproteasome subunit LMP2 (Homo sapiens, UniProt P28065+P40306); assay: Cell-free proteasome subunit peptide cleavage assay, LMP2; format: biochemical
[6] = biological target: mouse LMP7 (Mus musculus, UniProt O09061+P28063); assay: Cellular LMP7 activity in mouse P3X63Ag8.653 cells; format: cell-based

| IC50 [2] [nM] | IC50 [3] [nM] | IC50 [4] [nM] | IC50 [5] [nM] | IC50 [6] [nM] | Structure (SMILES) | cytotoxicity toward primary human B cells, PBMCs, mononuclear cells, and venular endothelial cells ([1]; 33 nmol/L) | proliferation of primary human coronary artery smooth muscle cells, endothelial cells, fibroblasts, and T cells ([1]; non-cytotoxic concentration of 11 nmol/L) |
| --- | --- | --- | --- | --- | --- | --- | --- |
| > 30000 | 28 ± 22 | 5470 | 0.9 ± 0.2 |  | CC(C)C[C@H](NC(=O)CNC(=O)c1cc(Cl)ccc1Cl)B(O)O [Ixazomib] | cytotoxic | reduced proliferation |
|  |  |  |  | 5.3 | CC(C)C[C@H](NC(=O)[C@H](Cc1ccccc1)NC(=O)c1cnccn1)B(O)O [Bortezomib] |  |  |

Reference: article PMC9398180 (Molecular Cancer Therapeutics, 2021)
